Results: publication PMC11302729, “Repurposing Hsp90 inhibitors as antimicrobials targeting two-component systems identifies compounds leading to loss of bacterial membrane integrity” (Microbiology Spectrum, 2024)
≈ marks a conversion by molar mass, not a printed value. Where “and” joins values, the source holds several entries; their conditions need not be identical. Equal values may be shown once. Read-outs that look alike come from different tables or passages of the source. No end group written: not given here.

Columns and labels:
Format in all cases: cell-based
[1] = test system: Escherichia coli ATCC 25922; experiment: MIC (microdilution) against E. coli; conditions: Escherichia coli
Protocol: (§1) Staphylococcus aureus str. Newman, Enterococcus faecalis vanA (strain E0155), Enterococcus faecium vanA (strain E1654), Escherichia coli ATCC 25922, Escherichia coli D21f2 with a truncated LPS barrier, Escherichia coli JW5503 (ΔtolC) ([49]), Pseudomonas aeruginosa ATCC 27853, and Pasteurella haemolytica ATCC 29701 were grown in Mueller-Hinton Broth (MHB) (Oxoid, Basingstoke, UK) and incubated at 37°C.
(§2) The minimal inhibitory concentration was determined using the microdilution method following the guidelines of the European Committee on Antimicrobial Susceptibility Testing ([50]). Briefly, a series of twofold dilutions in MHB of each compound were made in a 96-well plate, with final concentrations ranging from 50 to 0.39 µg/mL in 100 µL final volume per well. A hundred microliters of 1:100 dilution of an overnight culture of the correspondent bacteria in MHB was added to each well. Plates were incubated for 18 hours at 37°C. MIC was recorded as the lowest concentration where no growth was detected as measured by optical density at 600 nm (OD600) using Spectramax M5 (Molecular Devices LLC, San Jose, CA, USA). […] Wells containing bacteria with or without 1% DMSO and medium alone were included as controls in every plate.

[2] = test system: Escherichia coli JW5503 (ΔtolC); experiment: MIC (microdilution) against E. coli JW5503; conditions: Escherichia coli, read-out: MIC E. coli JW5503
From the text: (§3) We also tested the inhibitory activity of compounds in two different E. coli mutants: (i) E. coli JW5503 that lacks TolC efflux pumps and (ii) E. coli D21f2 that has a defective LPS inner core increasing permeability of the outer membrane. E. coli D21f2 has a slightly higher susceptibility to DPP compounds than E. coli ATCC25922.
as §1, §2

S. aureus str. Newman = experiment: Membrane permeability using SYTOX-Green, flow cytometry; conditions: for % FITC stained bacteria 0.5 xMIC: 0.5× MIC; for % FITC stained bacteria 1 xMIC: 1× MIC; for Membrane damage: if considered to cause membrane damage to S. aureus
Protocol: S. aureus str. Newman was grown to exponential phase (OD600 = 0.4) in MHB media. […] Nisin (Sigma-Aldrich) and novobiocin (Sigma-Aldrich) were used as positive and negative controls for membrane permeabilization, and stained and unstained untreated controls were also included in each assay. After exposure, samples were centrifuged at 4,000 r.p.m. for 5 min and resuspended in PBS. Bacteria were dyed by adding the fluorescent nuclear stain SYTOX Green (Molecular Probes, Invitrogen) to a final concentration of 0.5 µM and incubating for 5 min in the dark. Samples were centrifuged again and resuspended with PBS to remove unbound stain. Three hundred microliters of each sample was transferred to a clean well in a 96-well clear-bottom plate (Corning Incorporated). Fluorescence was measured in CytoFLEX flow cytometer (Beckman Coulter, Brea, CA, USA) using the green (FITC) channel with the excitation wavelength at 488 nm. Overlay histograms were created with CytExpert Software (Beckman Coulter, Brea, CA, USA).

[3] = test system: Staphylococcus aureus str. Newman; experiment: Minimal inhibitory concentration (microdilution) against S. aureus; conditions: for MIC S. aureus: Table ST3
Protocol: as §1, §2

[4] = test system: Enterococcus faecalis vanA (strain E0155); experiment: MIC (microdilution) against E. faecalis; conditions: Enterococcus faecalis, read-out: MIC E. faecalis
Protocol: as §1, §2

[5] = test system: Enterococcus faecium vanA (strain E1654); experiment: MIC (microdilution) against E. faecium; conditions: Enterococcus faecium, read-out: MIC E. faecium
Protocol: as §1, §2

HEK293 cells = experiment: in vitro; conditions: LC50/MIC (HEK293 / S. aureus)
Protocol: (§4) HEK293 cells and the human hepatocellular carcinoma cells (HepG2) were routinely cultured in 75-cm^2 culture flasks (Corning Incorporated) on high-glucose Dulbecco’s modified Eagle medium (DMEM) containing glutaMax and phenol red (Gibco) supplemented with 1% penicillin/streptomycin (Gibco) and 10% fetal bovine serum (FBS) (Gibco). Cells were maintained at 37°C and 5% CO2.
(§5) Cytotoxicity assays with HEK293 and HepG2 cells were performed in 96-well plates seeded with 5 × 10^4 cells/well and incubated for 24 hours to reach 80%–90% confluency. Exterior wells were filled with only medium to prevent evaporation. Culture medium was removed from the cells, and 100 µL of exposure medium [high-glucose DMEM without phenol red (Gibco)] was added to avoid a potential interaction between FBS components or antibiotics and tested compounds. A twofold dilution series of compounds in exposure medium (range 100–3.2 μg/mL) was made in a separate 96-well plate, and 100 µL of each of these dilutions was added to the assay plates for 24 hours at 37°C in the presence of 5% CO2. Control wells contained cells with DMEM, DMEM + 1% DMSO (vehicle control), or DMEM + 20% DMSO. Wells without cells were also included as negative control. After exposure, the medium was replaced with 100 µL 10% Alamar Blue (Invitrogen) in exposure medium. After 45 min incubation at 37°C and 5% CO2, fluorescence was measured on a Spectramax M5 plate reader at λex = 541 nm, λem = 590 nm. Cell viability compared with the vehicle control was calculated, and inhibition curves for each compound were fitted (non-linear curve fit, four variables, bottom constrained = 0) in Prism 9 (GraphPad Software, San Diego, USA).

[6] = test system: Pasteurella haemolytica ATCC 29701; experiment: MIC (microdilution) against P. haemolytica; conditions: Mannheimia haemolytica, ATCC29701, read-out: MIC P. haemolytica, Table ST1
Protocol: as §1, §2

[7] = test system: Pseudomonas aeruginosa ATCC 27853; experiment: MIC (microdilution) against P. aeruginosa; conditions: Pseudomonas aeruginosa
Protocol: as §1, §2

[8] = test system: Escherichia coli D21f2 with a truncated LPS barrier; experiment: MIC (microdilution) against E. coli D21f2; conditions: read-out: MIC E coli D21f2
From the text: as §3, §1, §2

in vitro = conditions: human
Protocol: as §4, §5

[9] = ATCC25922, Table ST1, read-out: MIC E. coli
[10] = Staphylococcus aureus, NEWMAN, Fig 2
[11] = Staphylococcus aureus, NEWMAN, Fig 2, value in parentheses
[12] = Table ST3, value in parentheses
[13] = ATCC27853, Table ST1, read-out: MIC P. aeruginosa

Compound | MIC [1, 9] [µg/mL] | MIC [2] [µg/mL] | % FITC stained bacteria 0.5 xMIC (S. aureus str. Newman; 5 min exposure) [%] | % FITC stained bacteria 1 xMIC (S. aureus str. Newman; 5 min exposure) [%] | % FITC stained bacteria 2 xMIC (S. aureus str. Newman; 2× MIC, 5 min exposure) [%] | Membrane damage (S. aureus str. Newman) | MIC [3, 10] [µg/mL] | MIC [3, 11] [µM] | MIC S. aureus [3] [µg/mL] | MIC [3, 12] [µM] | MIC [4] [µg/mL] | MIC [5] [µg/mL] | Selectivity Index (HEK293 cells) | MIC [6] [µg/mL] | MIC [7, 13] [µg/mL] | CC50 at 24 h (in vitro) | other results
Oc1ccc(-c2[nH]nc(C(F)(F)F)c2-c2ccccc2)c(O)c1 [DPP-1] | > 250 | 1.56 (≈ 4.87 µM) | 30.46 | 39.72 | 46.63 | YES | 6.25 | 19.5 | 6.25 (≈ 19.5 µM) | 19.53 | 12.5 (≈ 39 µM) | 12.5 (≈ 39 µM) | 0.65 | 25 (≈ 78.1 µM) | > 250 |  | 
Cc1n[nH]c(-c2ccc(O)cc2O)c1-c1ccc(Cl)cc1 [DPP-9] | > 250 | 12.5 (≈ 41.6 µM) | 38.22 | 41.34 | 43.78 | YES | 25 | 83.3 | 25 (≈ 83.1 µM) | 83.33 | 25 (≈ 83.1 µM) | 25 (≈ 83.1 µM) | 0.49 | 25 (≈ 83.1 µM) | > 250 |  | MIC [8]: 50 µg/mL (≈ 166 µM)
COc1ccc(-c2[nH]nc(C)c2-c2ccc(Cl)cc2)c(O)c1 [DPP-10] | > 250 | 6.25 (≈ 19.9 µM) | 28.57 | 37.28 | 40.99 | YES | 25 | 79.4 | 25 (≈ 79.4 µM) | 79.37 | 250 (≈ 794 µM) | 250 (≈ 794 µM) | 0.93 | 62.5 (≈ 199 µM) | > 250 |  | MIC [8]: 250 µg/mL (≈ 794 µM)
COc1ccccc1-c1c(C(F)(F)F)n[nH]c1-c1ccc(O)cc1O [DPP-16] | > 250 | 3.13 (≈ 8.94 µM) |  |  |  |  | 25 | 71.4 | 25 (≈ 71.4 µM) | 71.43 | 50 (≈ 143 µM) | 50 (≈ 143 µM) | 0.65 | 50 (≈ 143 µM) | > 250 | 16.4 µg/mL and 46.7 µM | 
COc1ccc(-c2[nH]nc(C(F)(F)F)c2-c2ccccc2OC)c(O)c1 [DPP-17] |  | 6.25 (≈ 17.2 µM) |  |  |  |  | 25 | 68.5 | 25 (≈ 68.6 µM) | 68.49 |  | > 250 | 0.50 | 50 (≈ 137 µM) |  | 12.6 µg/mL and 34.5 µM | MIC ([1]; ATCC25922, read-out: MIC E. coli): > 250 µg/mL; MIC ([4]; 18 h): > 250 µg/mL; MIC ([7]; ATCC27853, read-out: MIC P. aeruginosa): > 250 µg/mL
COc1ccc(-c2c(C(F)(F)F)n[nH]c2-c2ccc(O)cc2O)cc1OC [DPP-18] | > 250 | 6.25 (≈ 16.4 µM) |  |  |  |  | 50 | 132 | 50 (≈ 131 µM) | 131.58 | 50 (≈ 131 µM) | 50 (≈ 131 µM) | 0.45 | > 250 | > 250 | 22.8 µg/mL and 60 µM | 
COc1ccc(-c2[nH]nc(C(F)(F)F)c2-c2ccc(OC)c(OC)c2)c(O)c1 [DPP-19] | > 250 | 12.5 (≈ 31.7 µM) |  |  |  |  | 25 | 63.3 | 25 (≈ 63.4 µM) | 63.29 | 50 (≈ 127 µM) | 50 (≈ 127 µM) | 0.55 | > 250 | > 250 | 13.7 µg/mL and 34.6 µM | 
CO[C@@H]1[C@@H](OC(N)=O)[C@@H](O)[C@H](Oc2ccc3c(O)c(NC(=O)c4ccc(O)c(CC=C(C)C)c4)c(=O)oc3c2C)OC1(C)C [Novobiocin, reference compound] |  |  | 8.28 | 12.62 | 13.17 |  |  |  |  |  |  |  |  |  |  |  | Effect on membrane integrity (S. aureus str. Newman; 2× MIC, 5 min exposure): no effect on membrane integrity
Nisin: positive control for membrane permeabilization (ITSISLCTPGCKTGALMGCNMKTATCHCSIHVSK; ends and bridges not checked; also: lantibiotic nisin A: dehydrated residues and lanthionine rings not given here; UniProt P13068 24-57, looked up) [reference compound] |  |  | 16.37 | 53.32 | 59.41 |  |  |  |  |  |  |  |  |  |  |  | 
